Consider six molecules from paper PMC2941486 (Journal of Biomedical Science, 2010).

Marks after values point to notes of the source that are not given here. Square brackets hold non-standard residues; d marks the D form. Peptide text beside a SMILES is read from it. Dopa = N[C@@H](Cc1ccc(O)c(O)c1)C(=O)O; dPhg = N[C@@H](C(=O)O)c1ccccc1

For series [1], the target named is T1, intestinal peptide transporter I (PepT1) (Rattus norvegicus, UniProt P51574).
T1 construct: brush-boarder membrane vesicle (BBMV) prepared from rat intestine; from tissue; host or cells: rat intestine, brush-border membrane vesicles made by magnesium precipitation
T1 sequence (P51574 1-710): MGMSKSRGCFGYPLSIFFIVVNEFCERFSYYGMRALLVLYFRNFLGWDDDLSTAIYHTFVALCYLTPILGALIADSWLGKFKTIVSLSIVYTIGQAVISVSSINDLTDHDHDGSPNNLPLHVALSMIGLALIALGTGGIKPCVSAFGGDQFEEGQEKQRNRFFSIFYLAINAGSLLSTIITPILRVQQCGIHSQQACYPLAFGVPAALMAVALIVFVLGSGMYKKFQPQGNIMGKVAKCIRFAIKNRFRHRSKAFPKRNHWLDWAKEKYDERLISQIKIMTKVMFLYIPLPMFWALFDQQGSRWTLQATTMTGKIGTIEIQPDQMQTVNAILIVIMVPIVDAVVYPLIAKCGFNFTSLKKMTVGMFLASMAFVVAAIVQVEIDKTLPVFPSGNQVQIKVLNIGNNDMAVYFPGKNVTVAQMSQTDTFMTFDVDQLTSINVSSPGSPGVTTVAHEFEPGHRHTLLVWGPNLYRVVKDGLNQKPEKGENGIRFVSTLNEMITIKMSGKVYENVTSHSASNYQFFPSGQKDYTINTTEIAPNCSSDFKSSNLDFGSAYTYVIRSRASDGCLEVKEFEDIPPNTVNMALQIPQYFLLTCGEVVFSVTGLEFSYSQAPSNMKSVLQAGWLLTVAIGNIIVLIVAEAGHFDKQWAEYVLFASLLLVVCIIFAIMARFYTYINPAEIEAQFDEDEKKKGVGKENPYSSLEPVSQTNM
Nature of the series: BBMV uptake of d-phenylglycine-l-dopa with or without competitors. Type of series: in vitro ADME. The conditions noted are these: pH 7.4, room temperature.

Series [2] can be described thus: Stability in rat intestinal mucosa suspension. Particulars: pH 6.5 isotonic buffer, 37°C. Type of series: in vitro ADME. The method, then:
Mucosa suspension was prepared from the intestine of male Wistar rats according to established method and was stored in an ice bath before use.
The stability of d-phenylglycine-l-dopa in the intestine was determined prior to the intestinal absorption studies. In order to simulate intestinal microclimate pH, the compound was incubated with the intestinal mucosal suspension in a pH 6.5 isotonic buffer solution. l-Gly-l-Phe comprising essential amino acids degraded rapidly with only 50% of recovery after 2 min of incubation. d-Phenylglycine-l-dopa, on the other hand, was very stable with almost 100% of recovery after 90 min of incubation (Figure 3).
Figure 3 Comparison of the stability of d-phenylglycine-l-dopa and l-Gly-l-Phe in rat intestinal mucosa suspension. Each point represents mean ± SE. of 3 experiments. A methanolic solution (100 μl) of the test compound (1 mg/ml) was diluted with an isotonic mannitol buffer solution (pH 6.5, 2.4 ml) as the stock solution. This stock solution (1 ml) was mixed with the freshly prepared mucosal suspension (1 ml). The mixture was incubated in a water bath at 37°C and subjected to sampling at intervals between zero to 90 min of incubation. Each sampled solution (200 μl) was denatured with 0.8 ml of MeOH and centrifuged at 6,600 g for 5 min. Each of the supernatant (20 - 100 μl) was subjected to HPLC assay.

Series [3] can be described thus: In situ single-pass jejunal perfusion. Type of series: in vivo, rat. Particulars: for Blood concentration: steady-state plasma concentration after jejunal perfusion, l-dopa detected in only one of three rats. The procedure: Literature procedure was followed for the preparation of perfusion solutions and the jejunal segments. To maximize the absorption and to prevent the test compounds from being oxidized during perfusion, the experiments were performed at pH 6.0 with 0.02% (w/v) ascorbic acid added as antioxidant and nitrogen gas was bubbled through for 10 min before each experiment. Perfusion solution was pumped through the jejunal segment at a flow rate of 0.2 ml/min by a syringe pump (Stoelting, KD Scientific, U.S.A.). The jejunal segment was pre-washed with drug-free buffer for 10 min before the drug solution was pumped in. Outlet tubing samples were collected every 10 min for 6 collection periods after water and solute transport reached steady-state. The dimensionless membrane permeability Pm* [28] was measured as indications for the disappearance rate of test compound from the intestine. Plasma samples were withdrawn from carotid artery.
The absorption of d-phenylglycine-l-dopa and l-dopa was compared in rats by in situ single-pass jejunal perfusion experiments. Amidon's dimensionless cross-membrane permeability (Pm*) was determined as a parameter of intestinal absorption. The steady-state plasma concentration was also determined (Table 1).

The nature of series [4]: Pharmacokinetics after i.v. and oral administration. Type of series: in vivo, Wistar rats. The conditions noted are these: for AUC / half-life / clearance / Vd / Tmax: Wistar, rat, plasma, 5.97 mg/kg; for clearance: read-out: Clp; for Vd: read-out: Vdss; for Fraction of absorption (BA): oral vs i.v., Equation 1, rats. The procedure: Rats were fasted for at least 18 h prior to drug administration. Anaesthesia was induced by i.p. injection of urethane (0.15 g/100 g body weight). The rats were put under a heating lamp to maintain body temperature.
The HPLC system used in the assay of biological samples consisted of an autosampler (AS950, Jasco, Tokyo, Japan), a Waters Model 600E solvent delivery pump (Millipore, Milford, MA, USA), a Model LC-4C electrochemical detector with a glassy-carbon electrode (Bioanalytical Systems, Inc., West Lafayette, IN, USA), and an integrator (Macintosh LC II with Macintegrator I). A Nucleosil® 10 SA cationic ion-exchange column (10 μm, 300 × 4.0 mm, Macherey-Nagel, Düren, Germany) with a mobile phase comprising NaCl (50 mM) and Na2-EDTA (1.0 mM) in 0.1 M ammonium phosphate buffer (pH 2.0) at a flow rate of 2.0 ml/min was used for the elution of the samples. […] HPLC assay methods were validated by determining the precision and accuracy of intra-day and inter-day analysis of serum standards over a period of 6 days. The coefficients of variation for inter- and intraday assays were less than 15% for both compounds (n = 6).
According to the literature, the area under the plasma concentration-time profile (AUC) was calculated by log-linear trapezoidal rule. Plasma concentration after i.v. administration of drugs were also fitted to a […] model using PCNONLIN and Akeike's Information Criteria, sum of squared residuals, residual plot and correlation coefficient were use for determination of the compartment model. The residual area after the last observed data point was calculated as Clast/k, where Clast is the last observed concentration, and k is the corresponding terminal rate constant. Terminal half-life (t1/2) was estimated compartment model-independently. The fraction of absorption was calculated according to Equation 1.
(1) BA=AUCoral⋅koral/doseoral/AUCiv⋅kiv/doseiv×100%
Blood samples were collected from the carotid artery at time intervals of from 1 to 180 min. Heparin sodium (25 I.U./ml in 0.3 ml of saline) was added to blood samples, and were then centrifuged at 6,600 g for 5 min. Plasma was stored at -78°C until being analyzed. A 200 μl of the plasma sample in a 10 ml test tube was mixed with 500 μl of 1.0 M Tris buffer (pH 8.6, adjusted by EDTA-2Na^+) and 10 μl of 3,4-dihydroxybenzylamine (DHBA, 2 μg/ml) was added as internal standard. Alumina 100 mg was then added and then shake for 15 sec and the supernatant was decanted. The alumina was washed four times with 5 ml of water, and the adsorbed compounds on the alumina was eluted with 200 μl of an acidic solution (0.9 ml of glacial acetic acid in 4.0 ml of 1.0 M phosphate buffer). A 30 μl of the eluent was then analyzed by HPLC.

For another series, the system named is striatal dopamine. Description: Brain microdialysis of striatal dopamine after i.v. injection. The class given is in vivo, Sprague-Dawley rats. The conditions noted are these: after i.v. injection 50 mg/kg. The procedure:
Single dose d-phenylglycine-l-dopa (50 mg/kg in 2.5 mL of normal saline) was administered i. v. via femoral vein to anesthetized male Sprague-Dawley rats (280 - 320 g). The body temperature of the rats was maintained at 37°C with a heating pad throughout the experiment. The rat was immobilized in a stereotaxic frame (David Kopf Instruments, Tujunga, CA, USA), the skull was surgically exposed, and a hole was drilled with a trephine into the skull based on stereotaxic coordinates. The brain microdialysis system consisted of a CMA/100 microinjection pump (CMA, Stockholm, Sweden) and a microdialysis probe. The dialysis probes (3 mm in length) were made of silica capillary in a concentric design with their tips covered by dialysis membrane (Spectrum, 150 μm outer diameter with a cut-off at nominal molecular mass of 13000, Laguna Hills, CA, USA). The probe was placed into right striatum (0.2 mm anterior to bregma and 3.2 mm lateral to midline) and perfused with Ringer's solution (147 mM Na+; 2.2 mM Ca++; 4 mM K+; pH 7.0) at a flow-rate of 1 μl min^-1. The position of each probe was verified at the end of experiments. The dialysates was collected at 10 min intervals and aliquots of 10 μl was assayed by microbore HPLC. […]

The subject of series [5] is 6-OHDA-treated unilateral striatal-lesioned rats. Particulars: 10 mg/kg.
The mark [6] stands for this setting: oral, dose equivalent to 5.97 mg/kg l-dopa, rats.

`CC1=C(C(=O)O)N2C(=O)[C@@H](NC(=O)[C@H](N)C3=CCC=CC3)[C@H]2SC1` [cephradine]: the “Inhibition of BBMV uptake of d-phenylglycine-l-dopa by added competitor” value (shortened to “Inhibition”) in series [1] was “significantly inhibited”.

By AUC is commonly meant concentration integrated over time. Read a low AUC as low exposure. One may read the half-life as how long it takes for the measured level to halve. Low readings indicate rapid decline, high ones slow decline. A word on the Tmax: it is the time at which the peak concentration occurs. On to `N[C@@H](C(=O)N[C@@H](Cc1ccc(O)c(O)c1)C(=O)O)c1ccccc1` [d-phenylglycine-l-dopa] (H-[dPhg]-[Dopa]-OH), for which the recovery at 90 min, 0.02 mg/ml in series [2] (male, Wistar, rat, intestinal mucosa suspension, 90 min of incubation, read-out: Recovery after incubation with intestinal mucosal suspension) was about 100%. In addition, the “Steady-state plasma concentration after perfusion, molar ratio, higher than that of l-dopa” value in series [3] (jejunal perfusion, rats) was 31.1 fold. In series [3], this molecule registered a Blood concentration of 64.6 ± 5.40 µg/mL. Further, the Molar ratio of blood concentration in series [3] (steady-state, jejunal perfusion) was 31.1. For the same molecule, in series [4] (iv), the AUC is 1040 ng·h/mL, the half-life was 4.23 ± 1.22 h, the clearance worked out at 180 ± 60 mL/min/kg and the Vd turned out to be 11 ± 5.08 L/kg. Besides, in series [4] (po), the AUC is 481 ng·h/mL, the Tmax is 0.638 h and the half-life was determined as 2.38 ± 0.395 h. Also, in series [4] (i.v., rats), the “Systemic bioavailability (AUC), times lower than that of l-dopa” value turned out to be 7 times. Besides, in series [4], the “Fraction of absorption (BA)” value was 27.58 ± 4.56%. In addition, in series [4] (setting [6]), the Clp worked out at 290 ± 100 mL/min/kg and the Vdss was 35.7 ± 17.1 L/kg. Besides, in series [4] (rats, oral), the “Fraction of oral absorption, fold higher than that of l-dopa” value came out at 31 fold and the “Oral bioavailability, times higher than that of l-dopa” value was found to be 31.7 times. In the series with striatal dopamine, the “Time at which striatal dopamine had not reached plateau” value was over 3.5 h. Moreover, the Striatal dopamine level entry in the series with striatal dopamine (anesthetized rats, dialysates at 10 min intervals) is listed as “increased gradually”.

Consider `NCC(=O)N[C@@H](Cc1ccccc1)C(=O)O` [l-Gly-l-Phe, reference compound] (H-Gly-Phe-OH), for which, in series [1], the “Inhibition” value is given as “significantly inhibited”. Further, the “Recovery after incubation with intestinal mucosal suspension” value in series [2] (2 min of incubation) was 50%.

On to `NCC(=O)N1CCC[C@H]1C(=O)O` [l-Gly-l-Pro] (H-Gly-Pro-OH), for which, in series [1], the “Inhibition” value is recorded as “significantly inhibited”.

With `N[C@@H](Cc1ccccc1)C(=O)O` [l-Phe], in series [1], the “Inhibition” value was “less inhibited”.

In the case of `N[C@@H](Cc1ccc(O)c(O)c1)C(=O)O` [l-dopa, reference compound], the Blood concentration in series [3] was 1.24^a μg/ml. In addition, in series [4] (iv), the AUC is 7660 ng·h/mL, the half-life amounted to 1.69 ± 0.462 h, the clearance worked out at 20 ± 20 mL/min/kg and the Vd amounted to 1.22 ± 0.89 L/kg. In addition, in series [4] (po), the AUC was 456 ng·h/mL, the Tmax was 0.417 h and the half-life is 3.08 ± 0.77 h. Further, the “Fraction of absorption (BA)” value in series [4] is 0.87 ± 0.24%. In addition, the Clp in series [4] (setting [6]) was 10 ± 0 mL/min/kg. Also, the “Reduction in rotation (mean ± SE %)” value in series [5] is 9.9 ± 1.4%.
